The values below come from patent publication US7820708B2, “Carboxamides” (Bayer CropScience AG, priority 2005, dated 2010).

One data set has as its system Pyrenophora teres. Nature of the data set: Pyrenophora teres test (barley)/protective. The data set is classed as in vivo. To be noted: protective, application rate 500 ppm, evaluation 8 days after inoculation. On the procedure:
(§1) To produce a suitable preparation of active compound, 1 part by weight of active compound is mixed with the stated amounts of solvent and emulsifier and the concentrate is diluted with water to the desired concentration.
To test for protective activity, young plants are sprayed with the active compound preparation at the stated application rate. After the spray coating has dried on, the plants are sprayed with a conidia suspension of Pyrenophora teres. The plants remain in an incubation cabin at 20° C. and 100% relative atmospheric humidity for 48 hours.
The plants are then placed in a greenhouse at a temperature of about 20° C. and a relative atmospheric humidity of about 80%.
Evaluation is carried out 8 days after the inoculation. 0% means an efficacy which corresponds to that of the control, whereas an efficacy of 100% means that no infection is observed.

The nature of data set [1]: log P determination by HPLC on reversed-phase column (C 18), EEC Directive 79/831 Annex V.A8. The format is physicochemical. The note with it: reversed-phase HPLC column (C 18); pH 2.3; 0.1% aqueous phosphoric acid and acetonitrile; 43° C. On the procedure:
The log P values given in the Tables and Preparation Examples above are determined in accordance with EEC Directive 79/831 Annex V.A8 by HPLC (High Performance Liquid Chromatography) on a reversed-phase column (C 18). Temperature: 43° C. The determination is carried out in the acidic range at pH 2.3 using the mobile phases 0.1% aqueous phosphoric acid and acetonitrile; linear gradient from 10% acetonitrile to 90% acetonitrile. Calibration is carried out using unbranched alkan-2-ones (having 3 to 16 carbon atoms) with known log P values (determination of the log P values by the retention times using linear interpolation between two successive alkanones).

The next data set concerns Alternaria solani. In words: Alternaria test (tomato)/protective. The format is in vivo. To be noted: protective, application rate 1000 ppm, evaluation 7 days after inoculation. As to the method:
as §1
To test for protective activity, young tomato plants are sprayed with the active compound preparation at the stated application rate. 1 day after the treatment, the plants are inoculated with a spore suspension of Alternaria solani and then remain at 100% relative atmospheric humidity and 20° C. for 24 h. The plants then remain at 96% relative atmospheric humidity and a temperature of 20° C.
Evaluation is carried out 7 days after the inoculation. 0% means an efficacy which corresponds to that of the control, whereas an efficacy of 100% means that no infection is observed.

A further data set relates to Uromyces appendiculatus. In words: Uromyces test (bean)/protective. The data set is classed as in vivo. The note with it: protective, application rate 100 ppm, evaluation 10 days after inoculation. As to the method:
To produce a suitable preparation of active compound, 1 part by weight of active compound is mixed within the stated amounts of solvents and emulsifier and the concentrate is diluted with water to the desired concentration.
To test for protective activity, the young plants are sprayed with the active compound preparation at the stated application rate. After the spray coating has dried on, the plants are inoculated with an aqueous spore suspension of the bean rust pathogen Uromyces appendiculatus and then remain in an incubation cabin at about 20° C. and 100% relative atmospheric humidity for 1 day. The plants are then placed in a greenhouse at about 21° C. and a relative atmospheric humidity of about 90%.
Evaluation is carried out 10 days after the inoculation. 0% means an efficiency which corresponds to that of the control, whereas an efficacy of 100% means that no infection is observed.

As for `Cn1cc(C(=O)N(c2ccccc2-c2ccc(Cl)cc2)C2CC2)c(C(F)F)n1` [Compound 7], the Efficacy in % in the data set on Pyrenophora teres was found to be 95%; with Alternaria solani, 89%. Moreover, the chromatographic logP in data set [1] amounted to 3.38.
`Cn1cc(C(=O)N(c2ccc(F)cc2-c2ccc(Cl)c(Cl)c2)C2CC2)c(C(F)F)n1` [Compound 11] displayed a chromatographic logP in data set [1] of 3.85. The same molecule gave an Efficacy in % with Alternaria solani of 94%.
On to `Cc1nn(C)c(F)c1C(=O)N(c1ccccc1-c1ccc(Cl)cc1)C1CC1` [Compound 6], for which the Efficacy in % in the data set with Pyrenophora teres is on record as 80%; in the data set with Uromyces appendiculatus, 93%. For the same molecule, the chromatographic logP in data set [1] came out at 3.22.
In turn, `CC(C)CC(C)c1ccccc1N(C(=O)c1cn(C)nc1C(F)F)C1CC1` (stereo not drawn) [Compound 3, N-cyclopropyl-3-(difluoromethyl)-N-[2-(1,3-dimethylbutyl)phenyl]-1-methyl-1H-pyrazol-4-carboxamide] had a chromatographic logP in data set [1] of 3.89. Also, the Efficacy in % in the data set on Alternaria solani is reported as 94%; in the data set with Uromyces appendiculatus it was 100%.
The like results for `Cc1nn(C)c(F)c1C(=O)N(c1ccccc1C(C)CC(C)C)C1CC1` (stereo not drawn) [Compound 2] were, in that order, 3.74, 100% and 100%.
In data set [1], `CC(C)CC(C)c1ccccc1NC1CC1` (stereo not drawn) [III-1, N-cyclopropyl-2-(1,3-dimethylbutyl)aniline] yielded a chromatographic logP of 5.33.
With `Cc1nn(C)c(F)c1C(=O)N(c1ccc(F)cc1-c1ccc(Cl)c(Cl)c1)C1CC1` [Compound 10], the Efficacy in % is listed as 95% in the data set on Pyrenophora teres and 89% in the data set with Alternaria solani. This molecule came in with a chromatographic logP in data set [1] of 3.74.
